These results are taken from patent US12370203B2, “Pharmaceutical compositions and methods of making on demand solid dosage formulations” (Eastern Virginia Medical School, priority 2018, dated 2025).

For series [1], the system named is HIV. The series can be described thus: Cervical vaginal (CV) tissue explant HIV infection (p24 production, AUC). In kind it is cell-based. The source says: FIGS. 1A, 1B and 1C show EVG dose response plots on p24 production.
The nature of series [2]: EVG concentration in CV tissues. Format: in vitro ADME. The procedure:
FIG. 2 is a graph showing EVG concentrations in infected vs. not infected CV tissues. Median concentrations and ranges (min and max) are shown. PA=Protein adjusted. […] Based on the data, it can be extrapolated that EVG tissue concentrations of >1000 ng/g provided 100% HIV prophylaxis. (FIG. 2).

Series [3] has as its system HSV. The series can be described thus: Anti-HSV activity of tenofovir prodrugs. Format: cell-based.

Counter-ions that a name gives are not always drawn.

Turning to `COc1cc2c(cc1Cc1cccc(Cl)c1F)c(=O)c(C(=O)O)cn2[C@H](CO)C(C)C` [EVG, elvitegravir], the “% protection of mean AUC versus HIV control” value (shortened to “% protection”) in series [1] (Co-exposure, virus and EVG added together, EVG 0.1 μg/ml) was 97.56%; in series [1] (Co-exposure, virus and EVG added together, EVG 1 μg/ml), 100%; in series [1] (Post-exposure 4 h, EVG 0.1 μg/ml), 86%; in series [1] (Post-exposure 4 h, EVG 1 μg/ml) it was 99.56%; in series [1] (Post-exposure 4 h, EVG 10 μg/ml) it was 100%; in series [1] (Post-exposure 9 h, EVG 0.1 μg/ml) it was 85.85%. The “% protection” value in series [1] (Post-exposure 9 h, EVG 1 μg/ml) was found to be 100%; in series [1] (Post-exposure 9 h, EVG 10 μg/ml) it was 100%; in series [1] (Post-exposure 14 h, EVG 10 μg/ml) it was 100%; in series [1] (Post-exposure 24 h, EVG 10 μg/ml), 100%; in series [1] (Pre-exposure 0 h, EVG 0.1 μg/ml), 34.5%; in series [1] (Pre-exposure 0 h, EVG 1 μg/ml), 99.97%. The “% protection” value in series [1] (Pre-exposure 0 h, EVG 10 μg/ml) is given as 100%; in series [1] (Pre-exposure 7 h, EVG 0.1 μg/ml), 21.53%; in series [1] (Pre-exposure 7 h, EVG 1 μg/ml) it was 99.1%; in series [1] (Pre-exposure 7 h, EVG 10 μg/ml), 100%; in series [1] (Pre-exposure 24 h, EVG 0.1 μg/ml) it was 44.8%; in series [1] (Pre-exposure 24 h, EVG 1 μg/ml) it was 99.51%. For the same compound, in series [1] (Pre-exposure 24 h, EVG 10 μg/ml), the “% protection” value was 100%. Moreover, the “EVG tissue concentration that provided 100% HIV prophylaxis” value in series [2] (extrapolated from CV tissue data) was above 1000 ng/g. Further, the “median EVG concentration in CV tissues” value is on record as 1150 ng/g in series [2] (following 4 h of exposure to 1 μg/ml of EVG) and 13,381 ng/g in series [2] (following 4 h of exposure to 10 μg/ml of EVG).
For the compound `CC(C)OC(=O)[C@H](C)N[P@](=O)(CO[C@H](C)Cn1cnc2c(N)ncnc21)Oc1ccccc1` [TAF, tenofovir alafenamide fumarate], the “activity against HSV” value in series [3] is on record as “most potent”.
Take `CC(C)OC(=O)OCOP(=O)(CO[C@H](C)Cn1cnc2c(N)ncnc21)OCOC(=O)OC(C)C` [TDF, tenofovir disoproxil fumarate]: in series [3], the “activity against HSV” value is on record as “improved activity against HSV”.
`C[C@H](Cn1cnc2c(N)ncnc21)OCP(=O)(O)O` [TFV, tenofovir]: the “activity against HSV” value in series [3] is reported as “improved activity against HSV”.
On the same count and under the same terms, then `Nc1nc2c(ncn2COCCO)c(=O)[nH]1` [acyclovir (ACV), acyclovir], with “improved activity against HSV”.
